{"source": "patent US8372857B2", "about": "“Substituted 4-hydroxypyrimidine-5-carboxamides” (Merck Sharp & Dohme Corp., priority 2009, dated 2013)", "key": {"CYP3A4": {"biological_target": "CYP3A4 (Homo sapiens, UniProt P08684)", "sequence (P08684 whole entry)": "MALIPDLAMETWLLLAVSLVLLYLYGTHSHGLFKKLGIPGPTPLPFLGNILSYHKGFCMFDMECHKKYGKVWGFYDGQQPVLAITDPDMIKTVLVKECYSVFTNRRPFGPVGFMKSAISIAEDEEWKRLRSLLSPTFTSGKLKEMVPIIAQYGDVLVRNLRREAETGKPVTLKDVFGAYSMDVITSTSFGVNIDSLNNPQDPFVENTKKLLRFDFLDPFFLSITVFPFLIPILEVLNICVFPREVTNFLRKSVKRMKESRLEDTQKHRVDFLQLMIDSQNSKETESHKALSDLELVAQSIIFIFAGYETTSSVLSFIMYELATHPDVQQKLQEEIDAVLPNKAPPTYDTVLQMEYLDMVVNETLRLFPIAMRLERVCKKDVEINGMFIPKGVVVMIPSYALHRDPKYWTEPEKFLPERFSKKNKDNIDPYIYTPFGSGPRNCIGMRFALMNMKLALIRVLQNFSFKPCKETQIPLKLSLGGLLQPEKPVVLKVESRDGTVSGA", "assay": "Cytochrome P450 inhibition, CYP3A4", "assay_type": "in vitro ADME", "description": "(§1) The compounds of Example 1 and also Example 187 of PCT/US09/036,501 were tested for their activity at the cytochrome P450 enzymes CYP3A4 and CYP2C8. Utilizing procedures similar to that described by Walasky et al. and the references therein, the following human IC50 values were determined (Walsky, R. L.; Obach, R. S. Drug Metab. Dispos. 2004, 32, 647-660.)"}, "CYP2C8": {"biological_target": "T1, CYP2C8 (Homo sapiens, UniProt P10632)", "T1 sequence (P10632 1-490)": "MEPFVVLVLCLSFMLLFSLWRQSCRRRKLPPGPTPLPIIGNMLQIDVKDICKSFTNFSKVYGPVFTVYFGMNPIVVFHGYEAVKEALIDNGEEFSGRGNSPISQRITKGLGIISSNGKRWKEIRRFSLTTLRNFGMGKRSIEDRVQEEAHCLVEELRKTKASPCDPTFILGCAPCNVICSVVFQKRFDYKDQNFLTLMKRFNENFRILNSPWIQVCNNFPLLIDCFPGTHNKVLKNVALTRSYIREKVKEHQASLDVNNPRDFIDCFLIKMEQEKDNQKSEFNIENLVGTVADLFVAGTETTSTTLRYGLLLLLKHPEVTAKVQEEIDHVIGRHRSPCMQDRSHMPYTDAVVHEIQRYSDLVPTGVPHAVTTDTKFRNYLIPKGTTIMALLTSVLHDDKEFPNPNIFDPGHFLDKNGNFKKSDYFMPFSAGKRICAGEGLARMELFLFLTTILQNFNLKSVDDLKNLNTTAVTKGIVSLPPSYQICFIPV", "assay": "Cytochrome P450 inhibition, CYP2C8", "assay_type": "in vitro ADME", "description": "as §1"}, "[1]": {"assay": "Pharmacokinetics after intravenous dosing in dogs (plasma concentration by LC-MS/MS)", "assay_type": "in vivo", "conditions": "beagle, dog, dogs (beagles), 0.5 mg/kg intravenous", "description": "The pharmacokinetics and cytochrome P450 activity of Example 1 (E-1) were evaluated, and compared to that of Example 187 disclosed in International PCT application PCT/US09/036,501, filed Mar. 9, 2009. Compounds were formulated in a 1:1 solution (by volume) of PEG200: water and dosed at 0.5 mg/kg of body weight. The formulation was dosed intravenously in 2 dogs (beagles), and blood was drawn at the following time points (hours) 0.08, 0.25, 0.5, 1, 2, 4, 6, 8, 24. The plasma concentrations shown in the table below were determined by protein precipitation followed by liquid chromatography—tandem mass spectrometry analysis."}, "PHD2": {"biological_target": "T2, PHD2 (Homo sapiens, UniProt Q9GZT9)", "T2 construct": "FLAG-tagged full length PHD2 expressed in and purified from baculovirus-infected Sf9 cells; FLAG; made in house; host or cells: baculovirus-infected Sf9 cells", "T2 sequence (Q9GZT9 whole entry)": "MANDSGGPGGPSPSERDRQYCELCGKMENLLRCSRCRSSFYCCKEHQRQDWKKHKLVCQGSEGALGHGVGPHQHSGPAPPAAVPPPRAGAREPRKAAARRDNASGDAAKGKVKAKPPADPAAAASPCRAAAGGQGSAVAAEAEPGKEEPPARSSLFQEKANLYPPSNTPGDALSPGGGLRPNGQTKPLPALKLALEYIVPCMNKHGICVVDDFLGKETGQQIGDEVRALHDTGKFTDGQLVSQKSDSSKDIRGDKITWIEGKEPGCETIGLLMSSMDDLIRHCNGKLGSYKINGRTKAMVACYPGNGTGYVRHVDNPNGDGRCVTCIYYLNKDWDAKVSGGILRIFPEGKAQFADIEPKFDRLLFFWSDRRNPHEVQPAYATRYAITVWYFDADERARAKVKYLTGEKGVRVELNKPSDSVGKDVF", "assay": "PHD2 / HIF-1α peptide time resolved fluorescence assay", "assay_type": "biochemical", "description": "To each well of a 96-well plate was added 1 μL of test compound in DMSO and 20 μl of assay buffer (50 mM Tris pH 7.4/0.01% Tween-20/0.1 mg/ml bovine serum albumin/10 μM ferrous sulfate/1 mM sodium ascorbate/20 μg/ml catalase) containing 0.15 μg/ml FLAG-tagged full length PHD2 expressed in and purified from baculovirus-infected Sf9 cells. After a 30 min preincubation at room temperature, the enzymatic reactions were initiated by the addition of 4 μL of substrates (final concentrations of 0.2 μM 2-oxoglutarate and 0.5 μM HIF-1α peptide biotinyl-DLDLEMLAPYIPMDDDFQL). After 2 hr at room temperature, the reactions were terminated and signals were developed by the addition of a 25 μL quench/detection mix to a final concentration of 1 mM ortho-phenanthroline, 0.1 mM EDTA, 0.5 nM anti-(His)6 LANCE reagent (Perkin-Elmer Life Sciences), 100 nM AF647-labeled streptavidin (Invitrogen), and 2 μg/ml (His)-6-VIAL complex (S. Tan(2001) Protein Expr. Purif. 21, 224-234). The ratio of time resolved fluorescence signals at 665 and 620 nm was determined, and percent inhibition was calculated relative to an uninhibited control sample run in parallel."}}}
{"smiles": "COc1ccc(-c2ccc(C(C)(C)NC(=O)c3cnc(-c4cccnn4)nc3O)cn2)cc1", "note": "[Example 1, 4-Hydroxy-N-{1-[6-(4-methoxyphenyl)pyridin-3-yl]-1-methylethyl}-2-pyridazin-3-ylpyrimidine-5-carboxamide]", "values": [{"measurement": "IC50", "setting": "CYP3A4", "value": "> 50", "unit": "µM"}, {"measurement": "IC50", "setting": "CYP2C8", "value": 49.5, "unit": "µM"}, {"measurement": "MRT", "setting": "[1]", "value": 6.57, "unit": "h"}, {"measurement": "clearance", "setting": "[1]", "value": 2.49, "unit": "mL/min/kg"}, {"measurement": "concentration at 0.08 h", "setting": "[1]; 0.08 hours", "value": 1500, "unit": "nM"}, {"measurement": "concentration at 0.25 h", "setting": "[1]; 0.25 hours", "value": 1150, "unit": "nM"}, {"measurement": "concentration at 0.5 h", "setting": "[1]; 0.50 hours", "value": 1110, "unit": "nM"}, {"measurement": "concentration at 1 h", "setting": "[1]; 1.00 hours", "value": 944, "unit": "nM"}, {"measurement": "concentration at 2 h", "setting": "[1]; 2.00 hours", "value": 754, "unit": "nM"}, {"measurement": "concentration at 4 h", "setting": "[1]; 4.00 hours", "value": 581, "unit": "nM"}, {"measurement": "concentration at 6 h", "setting": "[1]; 6.00 hours", "value": 374, "unit": "nM"}, {"measurement": "concentration at 8 h", "setting": "[1]; 8.00 hours", "value": 475, "unit": "nM"}, {"measurement": "concentration at 24 h", "setting": "[1]; 24.00 hours", "value": 23, "unit": "nM"}, {"measurement": "half-life", "setting": "[1]; read-out: T ½ (converted)", "value": 4.09, "unit": "h"}, {"measurement": "IC50, inhibition of the interaction between PHD2 and a HIF peptide", "setting": "PHD2; general range statement, units within the value", "value": "0.0001 to 10", "unit": "µM"}, {"measurement": "IC50", "setting": "PHD2; read-out: PHD2 binding activity expressed as IC50", "value": "≤ 0.01", "unit": "µM"}]}
